Results from patent publication US11142519B2, “Pesticidally active pyrazole derivatives” (SYNGENTA PARTICIPATIONS AG, priority 2017, dated 2021).

What was measured:
Type in all cases: in vivo
Thrips tabaci = Thrips tabaci (Onion thrips) sunflower leaf disc spray test; conditions: foliar, 144 h, application rate of 200 ppm, population of mixed ages, 6 days after infestation
Procedure: Thrips tabaci (Onion thrips):
(§1) Sunflower leaf discs were placed on agar in 24-well microtiter plates and sprayed with aqueous test solutions prepared from 10,000 ppm DMSO stock solutions. After drying the leaf discs were infested with a thrips population of mixed ages. The samples were assessed for mortality 6 days after infestation.

Diabrotica balteata = Diabrotica balteata (Corn root worm) maize sprout spray test; conditions: 96 h, application rate of 200 ppm, L2 larvae, 4 days after infestation, read-out: effect in at least one of the two categories (mortality or growth inhibition)
Procedure: Diabrotica balteata, (Corn root worm)
Maize sprouts, placed on an agar layer in 24-well microtiter plates were treated with aqueous test solutions prepared from 10,000 ppm DMSO stock solutions by spraying. After drying, the plates were infested with L2 larvae (6 to 10 per well). The samples were assessed for mortality and growth inhibition in comparison to untreated samples 4 days after infestation. The following compounds gave an effect of at least 80% in at least one of the two categories (mortality or growth inhibition) at an application rate of 200 ppm: 1, 2, 3 and 7.

Euschistus heros = Euschistus heros (Neotropical Brown Stink Bug) soybean leaf spray test; conditions: 120 h, application rate of 200 ppm, N2 nymphs, 5 days after infestation, read-out: effect in at least one of the two categories (mortality or growth inhibition)
Procedure: Euschistus heros (Neotropical Brown Stink Bug)
Soybean leaves on agar in 24-well microtiter plates were sprayed with aqueous test solutions prepared from 10,000 ppm DMSO stock solutions. After drying the leaves were infested with N2 nymphs. The samples were assessed for mortality and growth inhibition in comparison to untreated samples 5 days after infestation. The following compounds gave an effect of at least 80% in at least one of the two categories (mortality or growth inhibition) at an application rate of 200 ppm: 1, 3 and 7.

Tetranychus urticae = Tetranychus urticae (Two-spotted spider mite) bean leaf disc spray test; conditions: foliar, 192 h, application rate of 200 ppm, 8 days after infestation, read-out: mortality on mixed population (mobile stages)
Procedure: Tetranychus urticae (Two-spotted spider mite):
as §1, with “Bean” for “Sunflower”, “discs” for “discs were placed”, “were” for “and”, “mite” for “thrips”, “on mixed population (mobile stages) 8” for “6”

Spodoptera littoralis = Spodoptera littoralis (Egyptian cotton leaf worm) cotton leaf disc spray test; conditions: foliar, 72 h, application rate of 200 ppm, L1 larvae, 3 days after infestation, read-out: control (at least one of mortality, anti-feedant effect, growth inhibition)
Procedure: Spodoptera littoralis (Egyptian cotton leaf worm)
Cotton leaf discs were placed on agar in 24-well microtiter plates and sprayed with aqueous test solutions prepared from 10,000 ppm DMSO stock solutions. After drying the leaf discs were infested with five L1 larvae. The samples were assessed for mortality, anti-feedant effect, and growth inhibition in comparison to untreated samples 3 days after infestation. Control of Spodoptera littoralis by a test sample is when at least one of mortality, anti-feedant effect, and growth inhibition is higher than the untreated sample.

Plutella xylostella = Plutella xylostella (Diamond back moth) artificial diet test; conditions: 120 h, application rate of 200 ppm, L2 larvae, 5 days after infestation, read-out: effect in at least one of the two categories (mortality or growth inhibition)
Procedure: Plutella xylostella (Diamond back moth):
24-well microtiter plates with artificial diet were treated with aqueous test solutions prepared from 10,000 ppm DMSO stock solutions by pipetting. After drying, the plates were infested with L2 larvae (10 to 15 per well). The samples were assessed for mortality and growth inhibition in comparison to untreated samples 5 days after infestation. The following compounds gave an effect of at least 80% in at least one of the two categories (mortality or growth inhibition) at an application rate of 200 ppm: 1, 2, 3, 4, 7 and 10.

Cn1nc(C(F)(F)C(F)(F)F)c(OC(F)F)c1-n1cc(-c2cc(C(=O)NC3CC3)c(C#N)s2)nn1 [Example 1, 2-cyano-N-cyclopropyl-5-[1-[4-(difluoromethoxy)-2-methyl-5-(1,1,2,2,2-pentafluoroethyl)pyrazol-3-yl]triazol-4-yl]thiophene-3-carboxamide]
≥ 80%: mortality at 200 ppm (Thrips tabaci) | percent effect (mortality or growth inhibition) at 200 ppm (Diabrotica balteata) | percent effect (mortality or growth inhibition) at 200 ppm (Euschistus heros) | mortality at 200 ppm (Tetranychus urticae) | percent control (mortality, anti-feedant effect or growth inhibition) at 200 ppm (Spodoptera littoralis) | percent effect (mortality or growth inhibition) at 200 ppm (Plutella xylostella)

CN(C(=O)c1cc(-c2cn(-c3c(OC(F)F)c(C(F)(F)C(F)(F)F)nn3C)nn2)sc1C#N)C1CC1 [Example 2, 2-cyano-N-cyclopropyl-5-[1-[4-(difluoromethoxy)-2-methyl-5-(1,1,2,2,2-pentafluoroethyl)pyrazol-3-yl]triazol-4-yl]-N-methyl-thiophene-3-carboxamide]
≥ 80%: mortality at 200 ppm (Thrips tabaci) | percent effect (mortality or growth inhibition) at 200 ppm (Diabrotica balteata) | mortality at 200 ppm (Tetranychus urticae) | percent control (mortality, anti-feedant effect or growth inhibition) at 200 ppm (Spodoptera littoralis) | percent effect (mortality or growth inhibition) at 200 ppm (Plutella xylostella)

CCN(C(=O)c1cc(-c2cn(-c3c(OC(F)F)c(C(F)(F)C(F)(F)F)nn3C)nn2)sc1C#N)C1CC1 [Example 3, 2-cyano-N-cyclopropyl-5-[1-[4-(difluoromethoxy)-2-methyl-5-(1,1,2,2,2-pentafluoroethyl)pyrazol-3-yl]triazol-4-yl]-N-ethyl-thiophene-3-carboxamide]
≥ 80%: mortality at 200 ppm (Thrips tabaci) | percent effect (mortality or growth inhibition) at 200 ppm (Diabrotica balteata) | percent effect (mortality or growth inhibition) at 200 ppm (Euschistus heros) | mortality at 200 ppm (Tetranychus urticae) | percent control (mortality, anti-feedant effect or growth inhibition) at 200 ppm (Spodoptera littoralis) | percent effect (mortality or growth inhibition) at 200 ppm (Plutella xylostella)

Cn1nc(C(F)(F)C(F)(F)F)c(OC(F)F)c1-n1cc(-c2cc(C(=O)NC3(C#N)CC3)c(C#N)s2)nn1 [Example 4, 2-cyano-N-(1-cyanocyclopropyl)-5-[1-[4-(difluoromethoxy)-2-methyl-5-(1,1,2,2,2-pentafluoroethyl)pyrazol-3-yl]triazol-4-yl]thiophene-3-carboxamide]
≥ 80%: mortality at 200 ppm (Thrips tabaci) | mortality at 200 ppm (Tetranychus urticae) | percent control (mortality, anti-feedant effect or growth inhibition) at 200 ppm (Spodoptera littoralis) | percent effect (mortality or growth inhibition) at 200 ppm (Plutella xylostella)

Cn1nc(C(F)(F)C(F)(F)F)c(OC(F)F)c1-n1cc(-c2cc(C(=O)NC3CC3)c(Cl)s2)nn1 [Example 7, 2-chloro-N-cyclopropyl-5-[1-[4-(difluoromethoxy)-2-methyl-5-(1,1,2,2,2-pentafluoroethyl)pyrazol-3-yl]triazol-4-yl]thiophene-3-carboxamide]
≥ 80%: mortality at 200 ppm (Thrips tabaci) | percent effect (mortality or growth inhibition) at 200 ppm (Diabrotica balteata) | percent effect (mortality or growth inhibition) at 200 ppm (Euschistus heros) | percent control (mortality, anti-feedant effect or growth inhibition) at 200 ppm (Spodoptera littoralis) | percent effect (mortality or growth inhibition) at 200 ppm (Plutella xylostella)

Cn1nc(C(F)(F)C(F)(F)F)c(OC(F)F)c1-n1cc(-c2cc(C(=O)NC3(C#N)CC3)c(Cl)s2)nn1 [Example 10, 2-chloro-N-(1-cyanocyclopropyl)-5-[1-[4-(difluoromethoxy)-2-methyl-5-(1,1,2,2,2-pentafluoroethyl)pyrazol-3-yl]triazol-4-yl]thiophene-3-carboxamide]
≥ 80%: mortality at 200 ppm (Thrips tabaci) | percent control (mortality, anti-feedant effect or growth inhibition) at 200 ppm (Spodoptera littoralis) | percent effect (mortality or growth inhibition) at 200 ppm (Plutella xylostella)
